In paper PMC5908784, “Extracellular loops 2 and 3 of the calcitonin receptor selectively modify agonist binding and efficacy” (Biochemical Pharmacology, 2018):
Where a chain is given by its changes, count along the chain named. Where a SMILES comes first, the peptide text is derived from it. Bridges are numbered along the chain shown (N, C = ends).

Assays:
Assay in all cases: cAMP accumulation
Assay type in all cases: cell-based
hCTR D287A = target: T1, hCTR D287A (Homo sapiens, UniProt P30988, D287A); conditions: mean ± S.E.M.; for Emax: cAMP maximal response, SEM
T1 construct: c-Myc (N); expressed in transfected cells
T1 sequence (P30988 25-474 D287A): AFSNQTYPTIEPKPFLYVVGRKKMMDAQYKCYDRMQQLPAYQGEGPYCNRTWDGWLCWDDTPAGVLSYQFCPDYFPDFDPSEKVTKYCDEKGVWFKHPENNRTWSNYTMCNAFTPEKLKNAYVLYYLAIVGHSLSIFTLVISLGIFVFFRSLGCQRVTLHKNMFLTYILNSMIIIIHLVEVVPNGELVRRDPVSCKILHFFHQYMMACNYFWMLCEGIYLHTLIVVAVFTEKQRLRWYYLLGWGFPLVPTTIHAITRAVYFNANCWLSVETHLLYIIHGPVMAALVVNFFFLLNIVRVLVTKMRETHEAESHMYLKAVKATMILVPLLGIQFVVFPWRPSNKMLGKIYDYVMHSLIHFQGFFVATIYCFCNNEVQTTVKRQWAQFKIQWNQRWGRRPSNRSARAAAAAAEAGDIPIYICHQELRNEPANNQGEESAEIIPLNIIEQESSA
In short: (§1)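 Plated cells were incubated overnight and then challenged with rising ligand concentrations for 30 min alongside IBMX. Medium was replaced by absolute ethanol, which was evaporated at room temperature before cAMP determination. Values are normalized to 100 μM forskolin.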

hCTR P363A = target: T2, hCTR P363A (Homo sapiens, UniProt P30988, P363A); conditions: mean ± S.E.M.; for Emax: cAMP maximal response, SEM; for EC50: cAMP, CV1-FlpIn cells, 30 min, IBMX
T2 construct: expressed in transfected cells
T2 sequence (P30988 25-474 P363A): T1 sequence (P30988 25-474 D287A) with A263D, P339A
In short: as §1

hCTR T295A = target: T3, hCTR T295A (Homo sapiens, UniProt P30988, T295A); conditions: mean ± S.E.M.; for Emax: cAMP maximal response, SEM; for EC50: cAMP, CV1-FlpIn cells, 30 min, IBMX
T3 construct: c-Myc (N); expressed in transfected cells
T3 sequence (P30988 25-474 T295A): T1 sequence (P30988 25-474 D287A) with A263D, T271A
In short: as §1

hCTR V375A = target: T4, hCTR V375A (Homo sapiens, UniProt P30988, V375A); conditions: mean ± S.E.M.; for Emax: cAMP maximal response, SEM; for EC50: cAMP, CV1-FlpIn cells, 30 min, IBMX
T4 construct: c-Myc (N); expressed in transfected cells
T4 sequence (P30988 25-474 V375A): T1 sequence (P30988 25-474 D287A) with A263D, V351A
In short: as §1

hCTR Y299A = target: T5, hCTR Y299A (Homo sapiens, UniProt P30988, Y299A); conditions: mean ± S.E.M.; for Emax: cAMP maximal response, SEM; for EC50: cAMP, CV1-FlpIn cells, 30 min, IBMX
T5 construct: c-Myc (N); expressed in transfected cells
T5 sequence (P30988 25-474 Y299A): T1 sequence (P30988 25-474 D287A) with A263D, Y275A
In short: as §1

Structure (SMILES) | Emax (hCTR D287A) [%] | Emax (hCTR P363A) [%] | Emax (hCTR T295A) [%] | Emax (hCTR V375A) [%] | Emax (hCTR Y299A) [%] | EC50 (hCTR P363A) [nM] | EC50 (hCTR T295A) [nM] | EC50 (hCTR V375A) [nM] | EC50 (hCTR Y299A) [nM] | EC50 (hCTR D287A; cAMP, CV1-FlpIn cells, 30 min, IBMX) [nM]
CC(C)C[C@H](NC(=O)[C@H](CCCCN)NC(=O)CNC(=O)[C@H](CC(C)C)NC(=O)[C@@H](NC(=O)[C@@H]1CSSC[C@H](N)C(=O)N[C@@H](CO)C(=O)N[C@@H](CC(N)=O)C(=O)N[C@@H](CC(C)C)C(=O)N[C@@H](CO)C(=O)N[C@@H]([C@@H](C)O)C(=O)N1)C(C)C)C(=O)N[C@@H](CO)C(=O)N[C@@H](CCC(N)=O)C(=O)N[C@@H](CCC(=O)O)C(=O)N[C@@H](CC(C)C)C(=O)N[C@@H](Cc1c[nH]cn1)C(=O)N[C@@H](CCCCN)C(=O)N[C@@H](CC(C)C)C(=O)N[C@@H](CCC(N)=O)C(=O)N[C@H](C(=O)N[C@@H](Cc1ccc(O)cc1)C(=O)N1CCC[C@H]1C(=O)N[C@@H](CCCNC(=N)N)C(=O)N[C@H](C(=O)N[C@@H](CC(N)=O)C(=O)N[C@H](C(=O)NCC(=O)N[C@@H](CO)C(=O)NCC(=O)N[C@H](C(=O)N1CCC[C@H]1C(N)=O)[C@@H](C)O)[C@@H](C)O)[C@@H](C)O)[C@@H](C)O [sCT] | 119 ± 7 | 111 ± 9 | 138 ± 13 | 106 ± 5 | 110 ± 7 |  |  |  |  | 
CC(C)C[C@H](NC(=O)[C@H](CC(N)=O)NC(=O)[C@H](CC(N)=O)NC(=O)[C@H](CO)NC(=O)[C@H](CO)NC(=O)[C@H](CCCNC(=N)N)NC(=O)[C@@H](NC(=O)[C@H](CC(C)C)NC(=O)[C@H](Cc1ccccc1)NC(=O)[C@H](CC(N)=O)NC(=O)[C@H](C)NC(=O)[C@H](CC(C)C)NC(=O)[C@H](CCCNC(=N)N)NC(=O)[C@H](CCC(N)=O)NC(=O)[C@@H](NC(=O)[C@H](C)NC(=O)[C@@H]1CSSC[C@H](NC(=O)[C@@H](N)CCCCN)C(=O)N[C@@H](CC(N)=O)C(=O)N[C@@H]([C@@H](C)O)C(=O)N[C@@H](C)C(=O)N[C@@H]([C@@H](C)O)C(=O)N1)[C@@H](C)O)C(C)C)C(=O)NCC(=O)N1CCC[C@H]1C(=O)N[C@H](C(=O)N[C@@H](CC(C)C)C(=O)N1CCC[C@H]1C(=O)N1CCC[C@H]1C(=O)N[C@H](C(=O)N[C@@H](CC(N)=O)C(=O)N[C@H](C(=O)NCC(=O)N[C@@H](CO)C(=O)N[C@@H](CC(N)=O)C(=O)N[C@H](C(=O)N[C@@H](Cc1ccc(O)cc1)C(N)=O)[C@@H](C)O)C(C)C)[C@@H](C)O)C(C)C [rAmy] |  | 94 ± 20 | 74 ± 19 | 92 ± 9 | 102 ± 1 |  |  |  |  | 
CC[C@H](C)[C@H](NC(=O)[C@H](C)NC(=O)[C@@H](NC(=O)[C@H](CCC(N)=O)NC(=O)[C@@H]1CCCN1C(=O)[C@H](Cc1ccccc1)NC(=O)[C@@H](NC(=O)[C@H](Cc1c[nH]cn1)NC(=O)[C@H](Cc1ccccc1)NC(=O)[C@H](CCCCN)NC(=O)[C@H](CC(N)=O)NC(=O)[C@H](Cc1ccccc1)NC(=O)[C@H](CC(=O)O)NC(=O)[C@H](CCC(N)=O)NC(=O)[C@@H](NC(=O)[C@H](Cc1ccc(O)cc1)NC(=O)[C@@H](NC(=O)CNC(=O)[C@H](CC(C)C)NC(=O)[C@H](CCSC)NC(=O)[C@@H]1CSSC[C@H](N)C(=O)NCC(=O)N[C@@H](CC(N)=O)C(=O)N[C@@H](CC(C)C)C(=O)N[C@@H](CO)C(=O)N[C@@H]([C@@H](C)O)C(=O)N1)[C@@H](C)O)[C@@H](C)O)[C@@H](C)O)[C@@H](C)O)C(=O)NCC(=O)N[C@H](C(=O)NCC(=O)N[C@@H](C)C(=O)N1CCC[C@H]1C(N)=O)C(C)C [hCT] | 140 ± 18 | 111 ± 5 | 127 ± 11 | 122 ± 7 | 133 ± 9 |  |  |  |  | 
CC(C)C[C@H](NC(=O)CNC(=O)[C@H](C)NC(=O)[C@H](CC(C)C)NC(=O)[C@H](CCCNC(=N)N)NC(=O)[C@H](Cc1cnc[nH]1)NC(=O)[C@@H](NC(=O)[C@@H](NC(=O)[C@@H]1CSSC[C@H](NC(=O)[C@H](C)N)C(=O)N[C@@H](CC(=O)O)C(=O)N[C@@H]([C@@H](C)O)C(=O)N[C@@H](C)C(=O)N[C@@H]([C@@H](C)O)C(=O)N1)C(C)C)[C@@H](C)O)C(=O)N[C@@H](CC(C)C)C(=O)N[C@@H](CO)C(=O)N[C@@H](CCCNC(=N)N)C(=O)N[C@@H](CO)C(=O)NCC(=O)NCC(=O)N[C@H](C(=O)N[C@H](C(=O)N[C@@H](CCCCN)C(=O)N[C@@H](CC(N)=O)C(=O)N[C@@H](CC(N)=O)C(=O)N[C@@H](Cc1ccccc1)C(=O)N[C@H](C(=O)N1CCC[C@H]1C(=O)N[C@H](C(=O)N[C@@H](CC(N)=O)C(=O)N[C@H](C(=O)NCC(=O)N[C@@H](CO)C(=O)N[C@@H](CCCCN)C(=O)N[C@@H](C)C(=O)N[C@@H](Cc1ccccc1)C(N)=O)C(C)C)[C@@H](C)O)C(C)C)C(C)C)C(C)C [hαCGRP] |  | 38 ± 7 | 79 ± 20 | 114 ± 17 | 62 ± 16 | 38.9 | 107 | 20.4 | 33.1 | 
CSCC[C@H](NC(=O)CNC(=O)[C@H](CO)NC(=O)[C@H](Cc1ccccc1)NC(=O)[C@H](CCCNC(=N)N)NC(=O)[C@H](Cc1c[nH]cn1)NC(=O)[C@H](Cc1ccccc1)NC(=O)[C@H](CC(N)=O)NC(=O)[C@H](CC(N)=O)NC(=O)[C@H](CC(C)C)NC(=O)[C@H](CC(N)=O)NC(=O)[C@H](CCCNC(=N)N)NC(=O)[C@H](Cc1c[nH]c2ccccc12)NC(=O)[C@H](Cc1ccc(O)cc1)NC(=O)[C@H](C)NC(=O)[C@H](CO)NC(=O)[C@H](CC(C)C)NC(=O)[C@@H](NC(=O)[C@@H]1CSSC[C@H](N)C(=O)N[C@@H](CO)C(=O)N[C@@H](CC(N)=O)C(=O)N[C@@H](CC(C)C)C(=O)N[C@@H](CO)C(=O)N[C@@H]([C@@H](C)O)C(=O)N1)C(C)C)C(=O)NCC(=O)N[C@@H](Cc1ccccc1)C(=O)NCC(=O)N1CCC[C@H]1C(=O)N[C@@H](CCC(=O)O)C(=O)N[C@H](C(=O)N1CCC[C@H]1C(N)=O)[C@@H](C)O [pCT] (H-CSNLSTCVLSAYWRNLNNFHRFSGMGFGPETP-NH2; disulfide 1-7) | 74 ± 9 | 148 ± 15 | 123 ± 8 | 151 ± 8 | 117 ± 9 | 0.389 | 0.282 | 0.0316 | 0.135 | 1.91
